Literature values as cited in paper PMC9516332 (Frontiers in Oncology, 2022).
Read-outs that look alike come from different tables or passages of the source.

Tests used:
Settings in all cases: cited from earlier work
[1] = biological target: panel of 255 wild-type kinases (Homo sapiens, UniProt Q9H2X6)
[2] = biological target: T1, panel of 255 wild-type kinases (Homo sapiens, UniProt Q9H093)
T1 sequence (Q9H093 1-628): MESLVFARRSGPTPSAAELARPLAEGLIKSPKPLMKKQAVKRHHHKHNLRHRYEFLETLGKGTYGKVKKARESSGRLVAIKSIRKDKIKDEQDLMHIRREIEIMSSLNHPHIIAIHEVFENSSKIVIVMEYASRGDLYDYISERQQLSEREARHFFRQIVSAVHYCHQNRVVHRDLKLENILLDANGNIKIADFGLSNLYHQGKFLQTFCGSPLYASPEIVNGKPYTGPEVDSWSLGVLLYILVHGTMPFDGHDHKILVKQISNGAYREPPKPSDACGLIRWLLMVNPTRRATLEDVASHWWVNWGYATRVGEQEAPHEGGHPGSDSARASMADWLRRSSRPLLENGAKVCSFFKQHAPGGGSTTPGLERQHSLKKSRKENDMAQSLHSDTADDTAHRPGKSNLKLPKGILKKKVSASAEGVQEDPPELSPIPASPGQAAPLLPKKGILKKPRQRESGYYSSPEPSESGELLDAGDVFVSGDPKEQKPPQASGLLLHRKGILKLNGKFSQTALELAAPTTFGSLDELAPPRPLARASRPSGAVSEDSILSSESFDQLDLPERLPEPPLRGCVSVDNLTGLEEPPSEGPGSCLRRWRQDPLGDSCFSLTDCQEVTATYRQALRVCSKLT

[3] = biological target: panel of 255 wild-type kinases (Homo sapiens, UniProt P22455)
[4] = biological target: T2, panel of 255 wild-type kinases (Homo sapiens, UniProt P41743)
T2 sequence (P41743 1-596): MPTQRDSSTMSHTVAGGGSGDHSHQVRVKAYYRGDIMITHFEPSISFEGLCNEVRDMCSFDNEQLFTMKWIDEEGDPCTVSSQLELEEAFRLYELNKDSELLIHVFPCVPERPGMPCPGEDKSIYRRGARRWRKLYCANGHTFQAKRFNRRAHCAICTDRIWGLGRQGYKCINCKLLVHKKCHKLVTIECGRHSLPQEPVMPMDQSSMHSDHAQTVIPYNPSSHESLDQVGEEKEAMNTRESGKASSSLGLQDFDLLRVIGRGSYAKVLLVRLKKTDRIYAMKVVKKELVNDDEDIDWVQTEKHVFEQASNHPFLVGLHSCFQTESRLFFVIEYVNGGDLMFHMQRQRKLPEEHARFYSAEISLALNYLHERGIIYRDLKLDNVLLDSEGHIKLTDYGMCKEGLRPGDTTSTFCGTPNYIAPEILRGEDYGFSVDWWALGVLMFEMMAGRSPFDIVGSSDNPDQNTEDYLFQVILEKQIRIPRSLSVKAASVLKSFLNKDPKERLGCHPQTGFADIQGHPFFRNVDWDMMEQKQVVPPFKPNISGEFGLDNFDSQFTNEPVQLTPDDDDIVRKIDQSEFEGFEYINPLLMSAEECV

[5] = biological target: panel of 255 wild-type kinases (Homo sapiens, UniProt P51957)
[6] = biological target: T3, panel of 255 wild-type kinases (Homo sapiens, UniProt Q9UHD2)
T3 sequence (Q9UHD2 1-729): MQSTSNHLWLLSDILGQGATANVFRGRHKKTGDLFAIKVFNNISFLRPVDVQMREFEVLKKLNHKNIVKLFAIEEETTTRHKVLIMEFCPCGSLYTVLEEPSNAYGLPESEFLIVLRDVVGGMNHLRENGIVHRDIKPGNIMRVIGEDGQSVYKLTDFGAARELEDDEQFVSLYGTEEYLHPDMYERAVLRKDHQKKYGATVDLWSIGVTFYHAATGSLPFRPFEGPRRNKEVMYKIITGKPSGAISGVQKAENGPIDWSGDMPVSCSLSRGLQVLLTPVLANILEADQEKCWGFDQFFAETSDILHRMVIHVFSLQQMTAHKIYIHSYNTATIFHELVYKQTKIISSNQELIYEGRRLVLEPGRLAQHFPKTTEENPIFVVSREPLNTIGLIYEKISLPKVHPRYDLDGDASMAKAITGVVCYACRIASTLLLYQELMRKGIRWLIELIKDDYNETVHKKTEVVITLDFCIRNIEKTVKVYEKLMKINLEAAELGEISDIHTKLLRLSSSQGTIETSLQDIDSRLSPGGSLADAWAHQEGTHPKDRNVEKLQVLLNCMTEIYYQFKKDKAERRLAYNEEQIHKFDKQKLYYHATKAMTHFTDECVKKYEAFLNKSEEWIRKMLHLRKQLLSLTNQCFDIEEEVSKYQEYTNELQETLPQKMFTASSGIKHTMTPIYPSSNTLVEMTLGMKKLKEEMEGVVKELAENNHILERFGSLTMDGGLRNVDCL

[7] = biological target: panel of 255 wild-type kinases (Homo sapiens, UniProt Q8TDX7)
[8] = biological target: panel of 255 wild-type kinases (Homo sapiens, UniProt P54764)
[9] = biological target: panel of 255 wild-type kinases (Homo sapiens, UniProt P45984)
[10] = kinase HIPK2, 1 µmol/L single concentration, ref DOI: 10.1158/1535-7163.MCT-18-0877
[11] = NuaK2, 1 µmol/L single concentration, ref DOI: 10.1158/1535-7163.MCT-18-0877
[12] = kinase FGFR4, 1 µmol/L single concentration, ref DOI: 10.1158/1535-7163.MCT-18-0877
[13] = kinase PKCι, 1 µmol/L single concentration, ref DOI: 10.1158/1535-7163.MCT-18-0877
[14] = NEK4, 1 µmol/L single concentration, ref DOI: 10.1158/1535-7163.MCT-18-0877
[15] = kinase TBK1, 1 µmol/L single concentration, ref DOI: 10.1158/1535-7163.MCT-18-0877
[16] = NEK7, 1 µmol/L single concentration, ref DOI: 10.1158/1535-7163.MCT-18-0877
[17] = kinase EPHA4, 1 µmol/L single concentration, ref DOI: 10.1158/1535-7163.MCT-18-0877
[18] = kinase JNK2, 1 µmol/L single concentration, ref DOI: 10.1158/1535-7163.MCT-18-0877
[19] = kinase HIPK2, 1 µmol/L single concentration, ref DOI: 10.1371/journal.pone.0092146
[20] = NuaK2, 1 µmol/L single concentration, ref DOI: 10.1371/journal.pone.0092146
[21] = kinase FGFR4, 1 µmol/L single concentration, ref DOI: 10.1371/journal.pone.0092146
[22] = kinase PKCι, 1 µmol/L single concentration, ref DOI: 10.1371/journal.pone.0092146
[23] = NEK4, 1 µmol/L single concentration, ref DOI: 10.1371/journal.pone.0092146
[24] = kinase TBK1, 1 µmol/L single concentration, ref DOI: 10.1371/journal.pone.0092146
[25] = NEK7, 1 µmol/L single concentration, ref DOI: 10.1371/journal.pone.0092146
[26] = kinase EPHA4, 1 µmol/L single concentration, ref DOI: 10.1371/journal.pone.0092146
[27] = kinase JNK2, 1 µmol/L single concentration, ref DOI: 10.1371/journal.pone.0092146

CC#CC(=O)N1CCC[C@H]1c1nc(-c2ccc(C(=O)Nc3ccccn3)cc2)c2c(N)nccn12 [acalabrutinib]
%-inhibition at 1 µmol/L, HIPK2 [1, 10]: -11%
%-inhibition, NuaK2 [2, 11]: 3%
%-inhibition at 1 µmol/L, FGFR4 [3, 12]: -9%
%-inhibition at 1 µmol/L, PKCι [4, 13]: -8%
%-inhibition, NEK4 [5, 14]: -4.76%
%-inhibition at 1 µmol/L, TBK1 [6, 15]: 2.14%
%-inhibition, NEK7 [7, 16]: -11%
%-inhibition at 1 µmol/L, EPHA4 [8, 17]: -3%
%-inhibition at 1 µmol/L, JNK2 [9, 18]: -1.85%

CCc1cc2c(cc1N1CCC(N3CCOCC3)CC1)C(C)(C)c1[nH]c3cc(C#N)ccc3c1C2=O [alectinib]
%-inhibition at 1 µmol/L, HIPK2 [1, 10]: 8%
%-inhibition, NuaK2 [2, 11]: -1.06%
%-inhibition at 1 µmol/L, FGFR4 [3, 12]: 4%
%-inhibition at 1 µmol/L, PKCι [4, 13]: 11%
%-inhibition, NEK4 [5, 14]: -1.16%
%-inhibition at 1 µmol/L, TBK1 [6, 15]: 6%
%-inhibition, NEK7 [7, 16]: -1.33%
%-inhibition at 1 µmol/L, EPHA4 [8, 17]: 3%
%-inhibition at 1 µmol/L, JNK2 [9, 18]: -0.468%

COc1cc(N2CCC(N3CCN(C)CC3)CC2)ccc1Nc1ncc(Cl)c(Nc2ccccc2P(C)(C)=O)n1 [brigatinib]
%-inhibition at 1 µmol/L, HIPK2 [1]: 9%
%-inhibition, NuaK2 [2]: 98%
%-inhibition at 1 µmol/L, FGFR4 [3]: 82%
%-inhibition at 1 µmol/L, PKCι [4]: -38%
%-inhibition, NEK4 [5]: 25%
%-inhibition at 1 µmol/L, TBK1 [6]: 23%
%-inhibition, NEK7 [7]: 1.23%
%-inhibition at 1 µmol/L, EPHA4 [8]: 3%
%-inhibition at 1 µmol/L, JNK2 [9]: 50%

Cc1cc(Nc2ncc(Cl)c(Nc3ccccc3S(=O)(=O)C(C)C)n2)c(OC(C)C)cc1C1CCNCC1 [ceritinib]
%-inhibition at 1 µmol/L, HIPK2 [1, 10]: 37%
%-inhibition, NuaK2 [2, 11]: 43%
%-inhibition at 1 µmol/L, FGFR4 [3, 12]: 69%
%-inhibition at 1 µmol/L, PKCι [4, 13]: 25%
%-inhibition, NEK4 [5, 14]: -3.48%
%-inhibition at 1 µmol/L, TBK1 [6, 15]: 4%
%-inhibition, NEK7 [7, 16]: -0.251%
%-inhibition at 1 µmol/L, EPHA4 [8, 17]: 1.33%
%-inhibition at 1 µmol/L, JNK2 [9, 18]: 16%

O=C(c1ccc(F)c(F)c1Nc1ccc(I)cc1F)N1CC(O)([C@@H]2CCCCN2)C1 [cobimetinib]
%-inhibition at 1 µmol/L, HIPK2 [1, 10]: 1.68%
%-inhibition, NuaK2 [2, 11]: -10%
%-inhibition at 1 µmol/L, FGFR4 [3, 12]: -0.0569%
%-inhibition at 1 µmol/L, PKCι [4, 13]: 2.45%
%-inhibition, NEK4 [5, 14]: 5%
%-inhibition at 1 µmol/L, TBK1 [6, 15]: 4%
%-inhibition, NEK7 [7, 16]: 1.68%
%-inhibition at 1 µmol/L, EPHA4 [8, 17]: 3%
%-inhibition at 1 µmol/L, JNK2 [9, 18]: -2.51%

C[C@@H](Oc1cc(-c2cnn(C3CCNCC3)c2)cnc1N)c1c(Cl)ccc(F)c1Cl [crizotinib]
%-inhibition at 1 µmol/L, HIPK2 [1, 19]: -6.53%
%-inhibition, NuaK2 [2, 20]: 87%
%-inhibition at 1 µmol/L, FGFR4 [3, 21]: 0%
%-inhibition at 1 µmol/L, PKCι [4, 22]: -5%
%-inhibition, NEK4 [5, 23]: 4.57%
%-inhibition at 1 µmol/L, TBK1 [6, 24]: 1.42%
%-inhibition, NEK7 [7, 25]: -5.3%
%-inhibition at 1 µmol/L, EPHA4 [8, 26]: 58%
%-inhibition at 1 µmol/L, JNK2 [9, 27]: -2.59%

CC(C)(C)c1nc(-c2cccc(NS(=O)(=O)c3c(F)cccc3F)c2F)c(-c2ccnc(N)n2)s1 [dabrafenib]
%-inhibition at 1 µmol/L, HIPK2 [1, 19]: 42%
%-inhibition, NuaK2 [2, 20]: 4.53%
%-inhibition at 1 µmol/L, FGFR4 [3, 21]: 19%
%-inhibition at 1 µmol/L, PKCι [4, 22]: 14%
%-inhibition, NEK4 [5, 23]: 4%
%-inhibition at 1 µmol/L, TBK1 [6, 24]: -1.15%
%-inhibition, NEK7 [7, 25]: 2.28%
%-inhibition at 1 µmol/L, EPHA4 [8, 26]: 12%
%-inhibition at 1 µmol/L, JNK2 [9, 27]: -0.947%

C=CC(=O)N1CCC[C@@H](n2nc(-c3ccc(Oc4ccccc4)cc3)c3c(N)ncnc32)C1 [ibrutinib]
%-inhibition at 1 µmol/L, HIPK2 [1, 10]: 2%
%-inhibition, NuaK2 [2, 11]: 6.37%
%-inhibition at 1 µmol/L, FGFR4 [3, 12]: 37%
%-inhibition at 1 µmol/L, PKCι [4, 13]: 2.23%
%-inhibition, NEK4 [5, 14]: 4.65%
%-inhibition at 1 µmol/L, TBK1 [6, 15]: 0.825%
%-inhibition, NEK7 [7, 16]: 0.69%
%-inhibition at 1 µmol/L, EPHA4 [8, 17]: 13%
%-inhibition at 1 µmol/L, JNK2 [9, 18]: -2.83%

CO[C@@H]1[C@H](N(C)C(=O)c2ccccc2)C[C@H]2O[C@]1(C)n1c3ccccc3c3c4c(c5c6ccccc6n2c5c31)C(=O)NC4 [midostaurin]
%-inhibition at 1 µmol/L, HIPK2 [1, 10]: 34%
%-inhibition, NuaK2 [2, 11]: 99%
%-inhibition at 1 µmol/L, FGFR4 [3, 12]: 38%
%-inhibition at 1 µmol/L, PKCι [4, 13]: 3%
%-inhibition, NEK4 [5, 14]: 26%
%-inhibition at 1 µmol/L, TBK1 [6, 15]: 98%
%-inhibition, NEK7 [7, 16]: -11%
%-inhibition at 1 µmol/L, EPHA4 [8, 17]: 2.15%
%-inhibition at 1 µmol/L, JNK2 [9, 18]: 8%

C=CC(=O)Nc1cc(Nc2nccc(-c3cn(C)c4ccccc34)n2)c(OC)cc1N(C)CCN(C)C [osimertinib]
%-inhibition at 1 µmol/L, HIPK2 [1, 10]: 40%
%-inhibition, NuaK2 [2, 11]: 4%
%-inhibition at 1 µmol/L, FGFR4 [3, 12]: 11%
%-inhibition at 1 µmol/L, PKCι [4, 13]: 20%
%-inhibition, NEK4 [5, 14]: 6%
%-inhibition at 1 µmol/L, TBK1 [6, 15]: 9%
%-inhibition, NEK7 [7, 16]: 0.703%
%-inhibition at 1 µmol/L, EPHA4 [8, 17]: 3.54%
%-inhibition at 1 µmol/L, JNK2 [9, 18]: -2.75%

CC(=O)Nc1cccc(-n2c(=O)n(C3CC3)c(=O)c3c(Nc4ccc(I)cc4F)n(C)c(=O)c(C)c32)c1 [trametinib]
%-inhibition at 1 µmol/L, HIPK2 [1, 19]: 0.155%
%-inhibition, NuaK2 [2, 20]: 9%
%-inhibition at 1 µmol/L, FGFR4 [3, 21]: -3%
%-inhibition at 1 µmol/L, PKCι [4, 22]: 9%
%-inhibition, NEK4 [5, 23]: 2%
%-inhibition at 1 µmol/L, TBK1 [6, 24]: -4.47%
%-inhibition, NEK7 [7, 25]: 1.63%
%-inhibition at 1 µmol/L, EPHA4 [8, 26]: -5.3%
%-inhibition at 1 µmol/L, JNK2 [9, 27]: -4.73%
